Laboratory results: patent US20230339978A1, “COMPOUNDS FOR PREVENTION OR TREATMENT OF NEURODEGENERATIVE DISORDERS” (1ST Biotherapeutics, Inc., priority 2020, published 2023)
Where two headings read alike, the source gives them in different places.

Legend:
[1] = target: GST-tagged recombinant human RIPK2 (Homo sapiens (Human), UniProt O43353); assay: RIP2 Kinase Assay (ADP-Glo); format: biochemical; conditions: 25 µM ATP, MBP substrate, 30° C. 60 minutes
Description: GST-tagged recombinant human RIPK2(25 ng) is incubated with 5 µL of compounds (0.5% DMSO), 5 µL of MBP (0.5 µg/µl) and 5 µL of ATP (25 µM) in buffer (40 mM Tris, 7.5; 20 mM MgCl2; 0.1 mg/ml BSA; 50 µM DTT). The assay was started by incubating the reaction mixture in a 96-well plate at 30° C. for 60 minutes. After the incubation, 25 µL ADP-Glo reagent was added, and the reaction was incubated at 30° C. for 40 minutes to stop the reaction and degrade residual ATP. The ADP product was then converted to ATP by adding 50 µL per well of detection reagent. Luminescence was detected after 30 minutes room temperature incubation with the Molecular device I3X plate reader. The IC50 values were calculated from a series of percent inhibition values determined at a range of inhibitor concentration using software routines as implemented in the GraphPad Prism 7 software or SigmaPlot 13.0.

LRRK2 (WT) = LRRK2 (WT) (Homo sapiens (Human), UniProt Q5S007); assay: LRRK2 kinase assay (Adapta); format: biochemical; conditions: 70 µM ATP, LRRKtide substrate
Description: (§1) LRRK2 and LRRK2 G2019S Kinase Assay
(§2) The LRRK2 and LRRK2 G2019S kinase assays were performed using the AdaptaTM technology in ThermoFisher Scientific. This experiment was carried out according to the supplier’s protocol. Briefly, assay conditions were as follows. The mixture of substrate (LRRKtide) and each kinase was prepared in 50 mM Tris pH 8.5, 0.01% BRIJ-35, 10 mM MgCl2, 1 mM EGTA, 0.02% NaN3. Assays were performed in the presence of 70 µM ATP and 100 µM ATP (KmATP) in LRRK2 and LRRK2 G2019S, respectively. The reaction was progressed at room temperature for 1 hour. Upon completion of kinase reaction, 5 µL of Detection Mix was added and after 60 min incubation time, the emission ratio of 665/615 nm was calculated

LRRK2 G2019S = LRRK2 G2019S (Homo sapiens (Human), UniProt Q5S007, G2019S); assay: LRRK2 G2019S kinase assay (Adapta); format: biochemical; conditions: 100 µM ATP, LRRKtide substrate; read-out: LRRK2_G2019S IC50
Description: as §1, §2

[2] = system: IL-6 secretion in BV-2 cell; assay: IL-6 Secretion in BV-2 Cell (L18-MDP stimulated, ELISA); format: cell-based; conditions: BV-2 mouse microglia cells, 10 µg/ml L18-MDP, 24 hr
Description: IL-6 Secretion in BV-2 Cell
BV-2 mouse microglia cells were kindly provided from Dr. Bae in Korea Institute of Science and Technology (KIST). BV-2 cells were thawed and suspended in Dulbecco’s modified eagle medium (DMEM) supplemented with 10% fetal bovine serum (FBS) and 1% Penicillin/Streptomycin. Cells were seeded into 96 well plates at 2X10^4 cells/well and allowed to attach for 24 hr. On the day of the experiment, various concentration of compounds were treated, and cells were stimulated with 10 µg/ml L18-MDP. After 24 hr incubation, supernatant was collected for cytokine assay.
Absorbance at 450 nm was measured using SpectraMax I3X microplate reader (Molecular Device). Values of media-only wells were subtracted and % inhibition for each compound concentration relative to the DMSO/L18-MDP-treated controls (100%) was calculated.

[3] = target: T1, His-tagged recombinant human ABL1 (Homo sapiens (Human), UniProt P00519); conditions: read-out: c-Abl IC50; 25 µM ATP, Abltide substrate, 30° C. 30-min
Description: (§3) ADP-Glo assay kit was purchased from Promega. Magnesium chloride (MgCl2), bovine serum albumin (BSA), ethylene glycol-bis(β-aminoethyl ether)-N,N,N′,N′-tetraacetic acid (EGTA), tween-20, 1,4-dithiothreitol (DTT) and dimethyl sulfoxide (DMSO) were purchased from Sigma-Aldrich. HEPES buffer was purchased from Gibco. ABL1 kinase and Abltide were purchased from Signalchem.
(§4) c-Abl kinase activity was measured by Promega’s ADP-Glo ® Assay. In this assay, His-tagged recombinant human ABL1 (0.25 ng/µl) is incubated with 5 µL of compounds (0.5% DMSO), 5 µL of Abltide (0.01 µg/µl) and 5 µL of ATP (25 µM) in buffer (50 mM HEPES,7.5; 10 mM MgCl2; 1 mM EGTA; 0.05% BSA; 0.01% Tween-20; 2 mM DTT.). The assay was started by incubating the reaction mixture in a 96-well plate at 30° C. for 30-min. After the incubation, 25 µL ADP-Glo reagent was added and the reaction was incubated at room temperature for 40-min to stop the reaction and degrade residual ATP. The ADP product was then converted to ATP by adding 50 µL per well of detection reagent. Luminescence was detected after 30-min room temperature incubation with the Molecular device I3X plate reader. The IC50 values were calculated from a series of percent inhibition values determined at a range of inhibitor concentration using software routines as implemented in the GraphPad Prism 7 software and Sigma Plot 13.0.

[4] = target: T1, His-tagged recombinant human ABL1; assay: biochemical
Description: as §3, §4

T1 sequence (P00519 whole entry): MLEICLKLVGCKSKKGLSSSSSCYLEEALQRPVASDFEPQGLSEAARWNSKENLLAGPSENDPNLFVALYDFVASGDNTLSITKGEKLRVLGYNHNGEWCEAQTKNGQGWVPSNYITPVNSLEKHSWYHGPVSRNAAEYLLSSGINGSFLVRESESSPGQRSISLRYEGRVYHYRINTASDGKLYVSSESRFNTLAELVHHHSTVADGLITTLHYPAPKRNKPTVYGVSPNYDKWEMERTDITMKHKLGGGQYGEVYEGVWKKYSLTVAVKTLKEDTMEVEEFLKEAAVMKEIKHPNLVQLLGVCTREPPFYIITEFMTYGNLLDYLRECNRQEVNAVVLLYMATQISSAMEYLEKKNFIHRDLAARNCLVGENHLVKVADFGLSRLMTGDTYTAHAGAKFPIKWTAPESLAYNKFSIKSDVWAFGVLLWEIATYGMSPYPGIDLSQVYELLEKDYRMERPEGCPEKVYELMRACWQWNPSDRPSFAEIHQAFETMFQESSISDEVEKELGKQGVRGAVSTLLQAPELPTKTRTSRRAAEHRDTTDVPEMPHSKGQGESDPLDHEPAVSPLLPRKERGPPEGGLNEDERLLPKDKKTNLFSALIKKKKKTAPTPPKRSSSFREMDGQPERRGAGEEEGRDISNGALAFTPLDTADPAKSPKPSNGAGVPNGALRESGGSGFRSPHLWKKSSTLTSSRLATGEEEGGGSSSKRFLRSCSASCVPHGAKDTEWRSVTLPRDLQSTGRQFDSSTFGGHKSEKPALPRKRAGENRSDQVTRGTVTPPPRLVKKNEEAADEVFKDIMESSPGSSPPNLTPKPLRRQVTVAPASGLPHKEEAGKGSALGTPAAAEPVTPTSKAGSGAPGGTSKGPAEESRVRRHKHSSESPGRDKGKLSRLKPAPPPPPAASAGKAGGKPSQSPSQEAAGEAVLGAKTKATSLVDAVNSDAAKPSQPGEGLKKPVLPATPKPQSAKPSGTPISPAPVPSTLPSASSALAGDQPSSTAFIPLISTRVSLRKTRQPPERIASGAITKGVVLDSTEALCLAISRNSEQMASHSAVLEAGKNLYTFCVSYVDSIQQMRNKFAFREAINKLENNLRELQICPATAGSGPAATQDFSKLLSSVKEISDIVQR
GST-tagged recombinant human RIPK2, sequence (O43353 whole entry): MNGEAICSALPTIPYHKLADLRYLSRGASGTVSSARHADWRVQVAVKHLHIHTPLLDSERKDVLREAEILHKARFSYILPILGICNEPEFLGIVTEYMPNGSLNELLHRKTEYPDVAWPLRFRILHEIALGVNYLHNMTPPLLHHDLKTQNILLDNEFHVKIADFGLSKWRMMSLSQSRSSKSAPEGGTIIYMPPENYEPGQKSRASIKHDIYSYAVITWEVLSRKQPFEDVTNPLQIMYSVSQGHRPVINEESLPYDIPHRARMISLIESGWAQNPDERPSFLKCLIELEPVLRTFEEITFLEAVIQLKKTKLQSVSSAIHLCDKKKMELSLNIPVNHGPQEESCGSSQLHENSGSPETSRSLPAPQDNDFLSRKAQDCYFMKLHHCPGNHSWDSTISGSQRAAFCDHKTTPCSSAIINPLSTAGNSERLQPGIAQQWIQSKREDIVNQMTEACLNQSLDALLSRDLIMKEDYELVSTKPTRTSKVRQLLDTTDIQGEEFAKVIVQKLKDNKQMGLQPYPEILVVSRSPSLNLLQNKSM
LRRK2 G2019S, sequence (Q5S007 whole entry G2019S): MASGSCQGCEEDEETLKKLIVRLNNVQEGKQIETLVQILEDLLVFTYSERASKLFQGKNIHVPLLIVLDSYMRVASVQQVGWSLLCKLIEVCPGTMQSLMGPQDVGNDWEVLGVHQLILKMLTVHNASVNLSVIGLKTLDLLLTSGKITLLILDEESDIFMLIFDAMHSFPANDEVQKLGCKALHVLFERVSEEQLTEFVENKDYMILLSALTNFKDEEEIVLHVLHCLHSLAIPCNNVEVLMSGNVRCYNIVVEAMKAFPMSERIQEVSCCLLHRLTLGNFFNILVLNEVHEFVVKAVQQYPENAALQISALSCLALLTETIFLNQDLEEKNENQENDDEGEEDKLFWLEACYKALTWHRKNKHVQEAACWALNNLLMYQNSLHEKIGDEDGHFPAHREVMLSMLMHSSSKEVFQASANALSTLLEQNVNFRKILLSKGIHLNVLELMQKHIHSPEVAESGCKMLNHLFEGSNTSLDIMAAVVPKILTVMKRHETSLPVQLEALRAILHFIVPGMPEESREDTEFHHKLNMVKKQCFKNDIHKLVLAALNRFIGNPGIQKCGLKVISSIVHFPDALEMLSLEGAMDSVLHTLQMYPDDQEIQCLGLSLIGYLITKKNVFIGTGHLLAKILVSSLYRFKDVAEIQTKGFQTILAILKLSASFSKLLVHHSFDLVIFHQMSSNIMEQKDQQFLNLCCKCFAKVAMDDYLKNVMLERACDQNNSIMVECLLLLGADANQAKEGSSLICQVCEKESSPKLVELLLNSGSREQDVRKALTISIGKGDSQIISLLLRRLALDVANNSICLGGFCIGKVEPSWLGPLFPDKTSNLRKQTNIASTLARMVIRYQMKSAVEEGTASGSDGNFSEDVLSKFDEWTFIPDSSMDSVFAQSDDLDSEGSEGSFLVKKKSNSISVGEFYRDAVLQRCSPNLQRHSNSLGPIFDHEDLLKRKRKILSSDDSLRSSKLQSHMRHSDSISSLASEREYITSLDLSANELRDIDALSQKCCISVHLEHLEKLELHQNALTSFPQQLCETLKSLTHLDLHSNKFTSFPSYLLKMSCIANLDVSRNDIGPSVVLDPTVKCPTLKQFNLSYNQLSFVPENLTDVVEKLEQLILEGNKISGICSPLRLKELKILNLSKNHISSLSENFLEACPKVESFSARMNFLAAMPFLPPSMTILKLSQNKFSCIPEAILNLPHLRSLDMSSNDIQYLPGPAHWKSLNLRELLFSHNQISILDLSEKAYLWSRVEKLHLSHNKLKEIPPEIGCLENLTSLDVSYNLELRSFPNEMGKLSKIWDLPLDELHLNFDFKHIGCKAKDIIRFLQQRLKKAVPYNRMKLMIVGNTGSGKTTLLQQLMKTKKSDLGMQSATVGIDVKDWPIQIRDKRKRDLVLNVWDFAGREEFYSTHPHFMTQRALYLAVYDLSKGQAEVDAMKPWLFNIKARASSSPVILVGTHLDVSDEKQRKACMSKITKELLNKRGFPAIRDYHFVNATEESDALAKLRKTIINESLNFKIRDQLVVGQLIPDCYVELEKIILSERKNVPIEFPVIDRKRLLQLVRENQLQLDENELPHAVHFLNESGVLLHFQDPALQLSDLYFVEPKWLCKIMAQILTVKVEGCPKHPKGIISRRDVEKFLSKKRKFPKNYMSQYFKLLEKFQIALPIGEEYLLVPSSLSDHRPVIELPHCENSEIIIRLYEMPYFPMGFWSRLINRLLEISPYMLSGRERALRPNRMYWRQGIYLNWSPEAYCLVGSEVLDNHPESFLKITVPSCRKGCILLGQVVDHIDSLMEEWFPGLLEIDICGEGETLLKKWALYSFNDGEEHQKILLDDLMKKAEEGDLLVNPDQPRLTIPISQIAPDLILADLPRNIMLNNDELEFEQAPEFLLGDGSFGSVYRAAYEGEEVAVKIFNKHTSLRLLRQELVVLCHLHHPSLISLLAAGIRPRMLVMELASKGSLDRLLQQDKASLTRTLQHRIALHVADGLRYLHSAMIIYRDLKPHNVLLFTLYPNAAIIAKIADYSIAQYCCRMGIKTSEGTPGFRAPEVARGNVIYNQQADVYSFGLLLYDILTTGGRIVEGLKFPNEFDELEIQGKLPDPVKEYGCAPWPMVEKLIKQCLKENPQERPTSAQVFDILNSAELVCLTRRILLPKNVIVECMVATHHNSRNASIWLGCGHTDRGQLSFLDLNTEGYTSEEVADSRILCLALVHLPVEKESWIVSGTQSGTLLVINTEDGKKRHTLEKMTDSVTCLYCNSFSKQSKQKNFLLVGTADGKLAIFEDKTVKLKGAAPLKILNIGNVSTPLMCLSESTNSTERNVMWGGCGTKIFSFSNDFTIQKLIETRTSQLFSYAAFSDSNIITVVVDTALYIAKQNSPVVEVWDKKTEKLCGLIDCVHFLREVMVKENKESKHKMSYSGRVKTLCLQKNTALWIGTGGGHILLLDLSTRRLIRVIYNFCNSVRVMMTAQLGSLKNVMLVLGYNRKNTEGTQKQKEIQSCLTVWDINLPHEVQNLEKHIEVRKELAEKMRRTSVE
LRRK2 (WT), sequence (Q5S007 whole entry, species assumed): as the sequence (Q5S007 whole entry G2019S) above, with S2019G counted along it

## O=C(Nc1cc2cc(-c3cnc4[nH]ccc4c3)ccn2n1)[C@@H]1C[C@@H]1F [Example 1, (1S,2S)-N-(5-(1 H-pyrrolo[2,3-b]pyridin-5-yl)pyrazolo[1,5-a]pyridin-2-yl)-2-fluorocyclopropane-1-carboxamide]
[1]
  IC50: 11 nM
LRRK2 (WT)
  IC50: 55.7 nM
LRRK2 G2019S
  IC50: 28 nM
[2]
  IC50: 187 nM
[3]
  IC50: 0.71 nM

## O=C(Nc1cc2cc(-c3cnc4[nH]ccc4c3Cl)ccn2n1)[C@@H]1C[C@@H]1F [Example 2, (1S,2S)-N-(5-(4-chloro-1 H-pyrrolo[2,3-b]pyridin-5-yl)pyrazolo[1,5-a]pyridin-2-yl)-2-fluorocyclopropane-1-carboxamide]
[1]
  IC50: 6.67 nM
LRRK2 (WT)
  IC50: 36.5 nM
LRRK2 G2019S
  IC50: 15 nM
[2]
  IC50: 68.6 nM
[3]
  IC50: 7.6 nM

## Cc1c(-c2ccn3nc(NC(=O)C4CC4)cc3c2)cnc2[nH]ccc12 [Example 19, N-(5-(4-methyl-1H-pyrrolo[2,3-b]pyridin-5-yl)pyrazolo[1,5-a]pyridin-2-yl)cyclopropanecarboxamide]
[1]
  IC50: 11.4 nM
[2]
  IC50: 82.9 nM
[4]
  IC50: 2.4 nM

## O=C(Nc1cc2cc(-c3cnc4[nH]cc(F)c4c3Cl)ccn2n1)[C@@H]1C[C@@H]1F [Example 30, (1S,2S)-N-(5-(4-chloro-3-fluoro-1H-pyrrolo[2,3-b]pyridin-5-yl)pyrazolo[1,5-a]pyridin-2-yl)-2-fluorocyclopropane-1-carboxamide]
[1]
  IC50: 10.2 nM
[2]
  IC50: 107 nM
[3]
  IC50: 7.2 nM
